Experiments:
[1] = Pharmacokinetics after SC administration; conditions: 6 mg/kg
Method: Pharmacokinetics and toxicological studies
Male C57BL/6 mice, each weighing 23.4–25.4 g, were quarantined for 1 week before drug treatment. Compounds dissolved in 100% saline were individually given to mice (n = 3) subcutaneously (6 mg/kg; nonfasted mice). Blood samples were collected via cardiac puncture at defined time points (0 (immediately before dosing), 0.03, 0.08, 0.25, 0.5, 1, 2, and 4 h after dosing) and then stored at −80 °C. The volume of the dosing solution given was 100 µL for each mouse. The plasma samples were analyzed by liquid chromatography– tandem mass spectrometry (LC–MS/MS), and the data were calculated by a standard noncompartmental method using the Kinetica software program (InnaPhase). […]

orthotopic HCA-1 tumors = test: Orthotopic HCA-1 HCC model; format: in vivo, C3H mice; conditions: treatment alone; for Effect on tumor growth: 15 mg/kg/d SC minipump 14 d
Method: (§1) In vivo hepatocellular carcinoma treatment studies […]
(§2) mouse PD-1 (200 µg/mouse; BioXcell, BE0146). The therapeutic efficacy and the changes in immune cells were analyzed after two weeks of treatment. The tumor volume was calculated with the following formula: volume = width × length × height/2. […]
Hematoxylin and Eosin staining
Lung tissue was cut into small pieces and fixed in 4% PFA (in PBS) overnight before being embedded in paraffin wax. The sections were then stained with hematoxylin and eosin (H&E) and observed with an inverted microscope (IX83, Olympus, Japan).
HCA-1 tumor-bearing mice were anesthetized, perfused via intracardiac injection with PBS and then sacrificed. Tumor tissues were collected and harvested in enzyme-containing DMEM cell culture medium (1.5 mg/mL of collagenase type 1A and hyaluronidase; Sigma).
The tissues were cut and ground into smaller pieces and then digested for 1 h at 37 °C to form suspensions of single tumor cells. The suspensions were filtered through a 70-µm cell strainer (Corning, Manassas, VA), and the cells were then incubated with rat anti-mouse CD16/CD32 mAbs to block Fc receptors. After washing 3 times and resuspending in cold flow buffer (1% BSA, 0.1% NaN3 in PBS), the single-cell suspensions were incubated with monoclonal anti-mouse F4/80-PE (eBiosciences, San Diego, CA), 7-AAD, CD3e-APC, CD8a-PE-Cy7, CD45-FITC, CD4-PE (BD Biosciences, East Rutherford, NJ), CD86-APC-

[2] = Metabolic stability in liver microsomes; format: in vitro ADME; conditions: mouse, rat, dog, and human
Text: Figure S4. The metabolic stabilities of BPRCX807 in liver microsomes. BPRCX807 is […]

orthotopic JHH-7 tumors = test: Orthotopic JHH-7 HCC model; format: in vivo, nude mice; conditions: treatment alone, 15 mg/kg/d SC minipump 14 d
Method: as §1, §2

[3] = SC, mice, n = 3
hERG (human K+ channel) = molecular target: T1, hERG (human K+ channel) (Homo sapiens, UniProt Q12809); test: hERG patch-clamp assay (hERG-CHO, automated patch-clamp); format: cell-based
T1 construct: host or cells: CHO (hERG-CHO)
T1 sequence (Q12809 whole entry): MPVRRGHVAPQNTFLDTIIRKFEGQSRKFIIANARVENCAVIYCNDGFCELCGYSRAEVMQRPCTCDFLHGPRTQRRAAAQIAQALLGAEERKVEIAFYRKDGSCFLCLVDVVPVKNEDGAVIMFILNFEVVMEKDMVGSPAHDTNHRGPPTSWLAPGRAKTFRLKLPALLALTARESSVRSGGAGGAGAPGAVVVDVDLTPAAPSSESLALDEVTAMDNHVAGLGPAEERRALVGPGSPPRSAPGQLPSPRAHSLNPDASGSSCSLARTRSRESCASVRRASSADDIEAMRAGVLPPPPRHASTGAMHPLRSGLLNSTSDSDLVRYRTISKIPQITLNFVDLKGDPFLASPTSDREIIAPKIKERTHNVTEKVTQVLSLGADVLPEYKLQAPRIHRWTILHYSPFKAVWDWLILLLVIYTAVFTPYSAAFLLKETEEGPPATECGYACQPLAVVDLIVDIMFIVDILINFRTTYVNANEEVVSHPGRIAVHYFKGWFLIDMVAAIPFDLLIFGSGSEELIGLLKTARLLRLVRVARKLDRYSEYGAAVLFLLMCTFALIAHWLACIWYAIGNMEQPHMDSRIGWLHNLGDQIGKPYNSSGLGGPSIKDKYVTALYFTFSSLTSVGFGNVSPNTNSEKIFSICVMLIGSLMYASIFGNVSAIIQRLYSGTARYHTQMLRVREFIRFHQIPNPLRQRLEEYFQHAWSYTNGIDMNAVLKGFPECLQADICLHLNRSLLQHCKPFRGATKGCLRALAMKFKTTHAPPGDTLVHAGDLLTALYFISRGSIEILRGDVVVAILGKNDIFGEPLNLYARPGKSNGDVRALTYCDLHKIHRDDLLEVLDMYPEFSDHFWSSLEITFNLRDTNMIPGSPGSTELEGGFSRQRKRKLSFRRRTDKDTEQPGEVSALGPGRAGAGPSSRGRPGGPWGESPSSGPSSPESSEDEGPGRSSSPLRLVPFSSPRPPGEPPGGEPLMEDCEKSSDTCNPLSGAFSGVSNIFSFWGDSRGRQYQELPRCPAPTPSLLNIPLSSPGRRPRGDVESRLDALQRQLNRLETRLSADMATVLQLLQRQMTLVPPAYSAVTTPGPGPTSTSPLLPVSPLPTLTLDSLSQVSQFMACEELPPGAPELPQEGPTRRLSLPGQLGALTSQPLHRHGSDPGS
Text: page 16: Table: List of genes examined by real-time PCR and the primer sequences used. Genes Forward primers Reverse primers Slug [NT] Fn1 [NT] Cdh2 […] Foxc2 [NT] Zeb1 [NT] Zeb2 [NT] Twist1 [NT] Cdh1 [NT] Mta3 [NT] Cldn3 [NT] Cldn5 [NT] β-actin […] [NT] Off-target standard assays Methods employed in this study have been adapted from the scientific literature to maximize reliability and reproducibility. Reference standards were run as an integral part of each assay to ensure the validity of the results obtained. Radioligand binding Assays were performed under conditions described in the accompanying "Methods" section of this report by Eurofins Panlabs, Inc (Taipei, Taiwan, ROC). hERG patch-clamp assay BPRCX807 were tested in the hERG (hERG-CHO, automated patch-clamp) assay and determined at Eurofins Panlabs (Missouri, USA). The experiment was accepted in accordance with Eurofins validation Standard Operating Procedure. Selectivity Screening of various chemokine receptors The results were performed by Eurofins DiscoverX (Fremont, California, USA). The S15

HCA-1 cells = test: Western blot of phospho-ERK and phospho-AKT after CXCL12 stimulation; format: cell-based, murine
Method: (§3) Western blotting was conducted by following standard procedures. HCA-1 or JHH-7 cells (10^5 cells per well) were seeded in 12-well plates (Costar, IL), incubated for 12 h and […]
(§4) containing (100 ng/mL) serum-free medium. After 24 h, the cells were lysed in RIPA buffer on ice for 30 min, and samples were collected and loaded with 4× Laemmli Sample buffer (Bio-Rad, Hercules, CA). The samples were separated on a 10% SDS-PAGE gels and transferred to PVDF membranes. After blocking with skim milk for 1 h, the membranes were incubated at 4°C overnight with primary antibodies against p -AKT, AKT, p-ERK, ERK (Cell Signaling, Danvers, MA) or β-actin (Sigma-Aldrich, St. Louis, MO) before incubation with HRP-conjugated secondary antibodies (Antibodies Inc., Davis, CA) for 1 h. […]
(§5) Total RNA was extracted from HCA-1 cells using the RNeasy Mini Kit (Qiagen, CA, USA). cDNAs were synthesized using the High-Capicity cDNA Reverse Transcription Kit […]
(§6) Biosystems, CA, USA) on a QPCR System. The comparative threshold cycle method was used to calculate fold change in gene expression, which was normalized to β-actin as a […]

JHH-7 cells = test: as above; format: cell-based, human
Method: as §3, §4, §5, §6

CXCR4 = CXCR4 (Homo sapiens, UniProt P61073); design: expressed in transfected cells; host or cells: HEK293T; conditions: screening hit; read-out: IC50 (binding affinity toward CXCR4 receptors); cited from earlier work
Chain of CXCR4 (P61073 whole entry): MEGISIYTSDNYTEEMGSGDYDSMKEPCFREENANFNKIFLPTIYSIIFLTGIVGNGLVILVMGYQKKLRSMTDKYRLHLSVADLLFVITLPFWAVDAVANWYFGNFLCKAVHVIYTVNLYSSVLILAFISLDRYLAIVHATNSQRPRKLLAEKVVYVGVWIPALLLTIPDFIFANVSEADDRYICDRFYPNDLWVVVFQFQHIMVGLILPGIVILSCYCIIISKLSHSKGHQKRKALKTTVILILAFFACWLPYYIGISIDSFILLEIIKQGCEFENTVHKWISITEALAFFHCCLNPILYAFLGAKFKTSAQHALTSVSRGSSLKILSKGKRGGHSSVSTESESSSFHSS

[4] = male, C57BL/6, mouse, in vivo, sc

## c1cc(CN2CCCNCCNCCCNCC2)ccc1CN1CCCNCCNCCCNCC1 [AMD3100, reference compound]
[1]; SC, mice, n = 3
  AUC0–4 h: 7,152 ± 135 ng/mL·h
[1]; [4]
  Cmax: 6200 ng/mL
  half-life: 1 h
Orthotopic HCA-1 tumors
  Effect on tumor growth: no significant effect on tumor growth
Orthotopic HCA-1 tumors; day 24
  Lung metastasis (number of lung nodules): reduced
[2]
  Metabolic stability in liver microsomes: Stable
Orthotopic JHH-7 tumors
  Effect on tumor growth: no significant effect on tumor growth
[3]
  Maximum tolerated dose: 15 mg/kg
hERG (human K+ channel)
  IC50: > 100000 nM

## NCCCCN(Cc1nc2ccccc2[nH]1)[C@H]1CCCc2cccnc21 [AMD11070, reference compound]
HCA-1 cells
  CXCL12-mediated cell signaling (phospho-ERK, phospho-AKT): moderately inhibited
JHH-7 cells
  CXCL12-mediated cell signaling (phospho-ERK, phospho-AKT): moderately inhibited

## Cc1cc(NC2CCN(C(=O)CCNCC(=O)O)CC2)nc(NCc2cn(CCCNCCCNC3CCCCC3)nn2)n1 [BPRCX714, reference compound]
Orthotopic HCA-1 tumors
  Effect on tumor growth: no significant effect on tumor growth
Orthotopic JHH-7 tumors
  Effect on tumor growth: no significant effect on tumor growth

## CCN(CC)CCCC(C)Nc1cc(/C=C/c2ccc([N+](=O)[O-])cc2)nc2cc(OC)ccc12 (centres unmarked) [CSV18742]
CXCR4
  IC50: 2130 ± 110 nM

## CNC(=O)c1cc(Oc2ccc(NC(=O)Nc3ccc(Cl)c(C(F)(F)F)c3)cc2)ccn1 [sorafenib, reference compound]
Orthotopic HCA-1 tumors
  F4/80+ TAMs infiltration into tumor (flow cytometry): substantially increased
Orthotopic HCA-1 tumors; day 24
  Intratumoral mean vessel density (MVD, CD31+ staining): significantly decrease intratumoral MVD
  Lung metastasis (number of lung nodules): barely reduced

— PMC8020795 (Proceedings of the National Academy of Sciences of the …, 2021)
